Assay results: patent US12427210B2, “Compounds comprising a fibroblast activation protein ligand and use thereof” (priority 2019, dated 2025)
Each block holds one molecule with its values, some of them ahead of it.

Key:
[1] = tested on: serine protease NS3 (a.a. 3-181) from Hepatitis C virus genotype 1a (mutant D168V); settings: Reference, 100 nM
[2] = tested on: serine protease NS3 (a.a. 3-181) from Hepatitis C virus genotype 1b; settings: Reference, 100 nM
[3] = biological target: serine protease NS3 (a.a. 3-181) from Hepatitis C virus genotype 2a (Hepatitis C virus genotype 2a, UniProt Q99IB8); settings: 100 nM
DPP7 = DPP7 (Homo sapiens, UniProt Q9UHL4); settings: 200 μM
DPP8 = DPP8 (Homo sapiens, UniProt Q6V1X1); settings: 200 μM
FAP = FAP (Homo sapiens, UniProt Q12884); settings: 100 nM
Ataxin3 = Ataxin3 (Homo sapiens, UniProt P54252); settings: 10 μM
Deubiquitinase OTUD6B = biological target: T1, Deubiquitinase OTUD6B (Homo sapiens, UniProt Q8N6M0); settings: 1 μM
T1 sequence (Q8N6M0 1-293): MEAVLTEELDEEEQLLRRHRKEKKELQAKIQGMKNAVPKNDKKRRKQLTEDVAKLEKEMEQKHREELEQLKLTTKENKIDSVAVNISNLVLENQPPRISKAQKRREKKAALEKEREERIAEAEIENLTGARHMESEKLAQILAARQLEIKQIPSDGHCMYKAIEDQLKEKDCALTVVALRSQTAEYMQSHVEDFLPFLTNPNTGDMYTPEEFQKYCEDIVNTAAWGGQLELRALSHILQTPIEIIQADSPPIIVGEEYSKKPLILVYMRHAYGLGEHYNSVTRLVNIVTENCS

[4] = biological target: T2, Ubiquitin carboxy-terminal hydrolase L1 (Homo sapiens, UniProt P09936); settings: 100 nM
T2 sequence (P09936 1-223): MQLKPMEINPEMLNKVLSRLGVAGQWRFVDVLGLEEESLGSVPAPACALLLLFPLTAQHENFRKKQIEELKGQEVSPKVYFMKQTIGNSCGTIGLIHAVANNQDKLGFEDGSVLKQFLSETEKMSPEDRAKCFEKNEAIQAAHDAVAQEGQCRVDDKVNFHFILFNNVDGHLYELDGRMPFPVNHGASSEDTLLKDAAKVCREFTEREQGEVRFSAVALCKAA

[5] = biological target: T3, Ubiquitin carboxy-terminal hydrolase L3 (Homo sapiens, UniProt P15374); settings: 10 nM
T3 sequence (P15374 1-230): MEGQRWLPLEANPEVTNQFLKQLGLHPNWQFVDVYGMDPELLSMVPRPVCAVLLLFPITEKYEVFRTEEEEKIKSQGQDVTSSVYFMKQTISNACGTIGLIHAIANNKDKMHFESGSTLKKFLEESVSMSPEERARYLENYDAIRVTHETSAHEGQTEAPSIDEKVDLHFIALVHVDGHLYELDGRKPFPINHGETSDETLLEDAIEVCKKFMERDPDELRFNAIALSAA

[6] = biological target: T4, Ubiquitin carboxyl-terminal hydrolase 2 (Homo sapiens, UniProt O75604); settings: 1 μM
T4 sequence (O75604 1-605): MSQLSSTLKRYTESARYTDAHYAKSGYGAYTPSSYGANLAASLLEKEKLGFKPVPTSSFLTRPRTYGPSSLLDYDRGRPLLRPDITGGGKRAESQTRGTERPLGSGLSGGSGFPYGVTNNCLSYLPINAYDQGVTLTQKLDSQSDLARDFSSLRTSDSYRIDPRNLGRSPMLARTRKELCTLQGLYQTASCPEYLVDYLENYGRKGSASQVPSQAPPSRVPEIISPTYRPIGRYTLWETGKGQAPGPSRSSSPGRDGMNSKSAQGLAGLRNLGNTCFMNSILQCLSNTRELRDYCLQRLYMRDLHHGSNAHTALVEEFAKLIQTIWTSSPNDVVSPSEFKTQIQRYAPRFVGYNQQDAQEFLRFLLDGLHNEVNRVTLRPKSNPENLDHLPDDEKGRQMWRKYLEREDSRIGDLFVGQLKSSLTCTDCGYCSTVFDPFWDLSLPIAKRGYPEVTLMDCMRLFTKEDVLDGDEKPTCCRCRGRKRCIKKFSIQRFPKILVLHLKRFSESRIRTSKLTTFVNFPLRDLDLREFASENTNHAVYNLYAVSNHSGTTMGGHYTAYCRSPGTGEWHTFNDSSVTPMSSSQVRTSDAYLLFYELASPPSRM

[7] = biological target: T5, Ubiquitin carboxyl-terminal hydrolase 5 (Homo sapiens, UniProt P45974); settings: 1 μM
T5 sequence (P45974 1-858): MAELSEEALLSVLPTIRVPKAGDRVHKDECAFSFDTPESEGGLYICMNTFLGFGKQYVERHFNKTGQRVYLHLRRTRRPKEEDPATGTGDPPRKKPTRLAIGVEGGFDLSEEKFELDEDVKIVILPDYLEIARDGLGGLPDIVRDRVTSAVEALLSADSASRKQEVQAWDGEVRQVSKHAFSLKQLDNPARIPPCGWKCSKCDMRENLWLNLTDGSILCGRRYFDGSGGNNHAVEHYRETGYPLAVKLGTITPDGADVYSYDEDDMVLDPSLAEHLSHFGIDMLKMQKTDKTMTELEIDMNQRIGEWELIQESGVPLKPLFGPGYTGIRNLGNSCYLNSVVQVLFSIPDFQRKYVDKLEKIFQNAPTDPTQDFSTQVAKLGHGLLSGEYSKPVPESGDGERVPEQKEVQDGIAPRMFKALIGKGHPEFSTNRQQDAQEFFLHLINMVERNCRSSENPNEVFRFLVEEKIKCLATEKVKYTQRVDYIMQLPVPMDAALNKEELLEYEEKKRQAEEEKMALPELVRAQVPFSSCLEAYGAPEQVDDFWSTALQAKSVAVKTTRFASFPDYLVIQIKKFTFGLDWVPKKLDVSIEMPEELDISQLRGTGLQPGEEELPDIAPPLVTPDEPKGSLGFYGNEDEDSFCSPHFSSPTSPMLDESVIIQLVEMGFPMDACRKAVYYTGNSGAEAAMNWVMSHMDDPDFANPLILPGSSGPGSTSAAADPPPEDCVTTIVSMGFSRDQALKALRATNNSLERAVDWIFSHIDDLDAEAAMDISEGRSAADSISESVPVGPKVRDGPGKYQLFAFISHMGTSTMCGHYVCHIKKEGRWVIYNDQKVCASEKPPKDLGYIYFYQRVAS

[8] = biological target: Ubiquitin carboxyl-terminal hydrolase 7 (Homo sapiens, UniProt Q93009); settings: 1 μM
[9] = biological target: T6, Ubiquitin carboxyl-terminal hydrolase 8 (Homo sapiens, UniProt P40818); settings: 1 μM
T6 sequence (P40818 1-1118): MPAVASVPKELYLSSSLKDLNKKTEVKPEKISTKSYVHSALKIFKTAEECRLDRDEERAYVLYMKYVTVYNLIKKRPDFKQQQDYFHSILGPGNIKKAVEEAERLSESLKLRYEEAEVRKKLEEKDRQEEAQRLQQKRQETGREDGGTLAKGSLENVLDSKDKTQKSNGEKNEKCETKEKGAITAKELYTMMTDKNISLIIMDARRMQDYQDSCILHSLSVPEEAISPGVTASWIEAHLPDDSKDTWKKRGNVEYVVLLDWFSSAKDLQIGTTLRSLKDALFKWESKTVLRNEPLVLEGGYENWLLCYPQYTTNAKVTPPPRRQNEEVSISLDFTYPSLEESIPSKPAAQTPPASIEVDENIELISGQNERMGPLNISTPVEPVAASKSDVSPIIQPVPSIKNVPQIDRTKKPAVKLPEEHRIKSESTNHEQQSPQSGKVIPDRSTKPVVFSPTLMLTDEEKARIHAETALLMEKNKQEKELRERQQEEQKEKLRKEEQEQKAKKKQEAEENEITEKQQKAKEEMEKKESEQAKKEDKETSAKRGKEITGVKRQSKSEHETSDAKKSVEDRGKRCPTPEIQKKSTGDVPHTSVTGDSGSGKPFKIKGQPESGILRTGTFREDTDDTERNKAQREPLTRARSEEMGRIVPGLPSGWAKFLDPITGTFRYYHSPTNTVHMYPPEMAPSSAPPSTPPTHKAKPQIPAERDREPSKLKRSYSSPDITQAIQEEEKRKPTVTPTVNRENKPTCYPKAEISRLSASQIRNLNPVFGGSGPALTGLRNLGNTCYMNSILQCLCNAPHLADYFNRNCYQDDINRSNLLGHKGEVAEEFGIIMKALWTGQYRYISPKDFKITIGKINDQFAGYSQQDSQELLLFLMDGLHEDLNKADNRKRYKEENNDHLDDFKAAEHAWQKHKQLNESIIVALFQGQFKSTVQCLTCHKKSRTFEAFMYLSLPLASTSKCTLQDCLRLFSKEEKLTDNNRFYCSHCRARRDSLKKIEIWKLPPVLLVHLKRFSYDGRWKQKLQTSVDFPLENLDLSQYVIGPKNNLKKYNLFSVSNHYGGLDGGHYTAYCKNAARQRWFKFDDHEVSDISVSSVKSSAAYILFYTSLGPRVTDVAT

[10] = biological target: Ubiquitin carboxyl-terminal hydrolase 10 (Homo sapiens, UniProt Q14694); settings: 1 μM
[11] = biological target: Ubiquitin carboxyl-terminal hydrolase 14 (Homo sapiens, UniProt P54578); settings: 100 nM
Chain of Ubiquitin carboxyl-terminal hydrolase 14 (P54578 whole entry): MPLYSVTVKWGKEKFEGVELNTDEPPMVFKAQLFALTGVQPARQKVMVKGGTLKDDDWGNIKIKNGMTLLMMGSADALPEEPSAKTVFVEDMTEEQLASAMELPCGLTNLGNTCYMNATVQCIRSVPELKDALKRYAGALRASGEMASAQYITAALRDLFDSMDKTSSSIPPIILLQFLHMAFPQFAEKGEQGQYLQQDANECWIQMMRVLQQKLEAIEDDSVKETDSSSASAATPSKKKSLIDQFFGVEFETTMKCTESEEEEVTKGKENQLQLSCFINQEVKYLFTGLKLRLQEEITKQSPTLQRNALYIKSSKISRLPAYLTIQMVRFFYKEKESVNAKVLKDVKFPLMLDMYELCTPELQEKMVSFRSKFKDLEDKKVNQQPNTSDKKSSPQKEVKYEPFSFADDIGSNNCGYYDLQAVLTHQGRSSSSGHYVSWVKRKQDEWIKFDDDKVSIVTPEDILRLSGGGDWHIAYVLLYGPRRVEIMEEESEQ

Chain of Ataxin3 (P54252 whole entry, species assumed): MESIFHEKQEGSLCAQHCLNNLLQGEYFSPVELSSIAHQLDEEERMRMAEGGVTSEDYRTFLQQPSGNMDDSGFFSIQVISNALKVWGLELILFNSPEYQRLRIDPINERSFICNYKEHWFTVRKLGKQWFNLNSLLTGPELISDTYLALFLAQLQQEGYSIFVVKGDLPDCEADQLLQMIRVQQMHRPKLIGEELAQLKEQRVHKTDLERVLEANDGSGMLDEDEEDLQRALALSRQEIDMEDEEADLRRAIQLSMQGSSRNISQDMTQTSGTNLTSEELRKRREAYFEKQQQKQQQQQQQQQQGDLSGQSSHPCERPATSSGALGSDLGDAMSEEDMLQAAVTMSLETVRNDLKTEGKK
Chain of serine protease NS3 (a.a. 3-181) from Hepatitis C virus genotype 2a (Q99IB8 1033-1211 limits assumed, other chains not shown): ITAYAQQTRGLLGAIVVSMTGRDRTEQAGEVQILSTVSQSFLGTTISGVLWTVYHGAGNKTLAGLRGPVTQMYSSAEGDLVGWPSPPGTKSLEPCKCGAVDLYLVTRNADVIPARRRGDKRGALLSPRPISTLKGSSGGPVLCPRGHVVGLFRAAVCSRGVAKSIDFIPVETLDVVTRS
Chain of DPP8 (Q6V1X1 whole entry, species assumed): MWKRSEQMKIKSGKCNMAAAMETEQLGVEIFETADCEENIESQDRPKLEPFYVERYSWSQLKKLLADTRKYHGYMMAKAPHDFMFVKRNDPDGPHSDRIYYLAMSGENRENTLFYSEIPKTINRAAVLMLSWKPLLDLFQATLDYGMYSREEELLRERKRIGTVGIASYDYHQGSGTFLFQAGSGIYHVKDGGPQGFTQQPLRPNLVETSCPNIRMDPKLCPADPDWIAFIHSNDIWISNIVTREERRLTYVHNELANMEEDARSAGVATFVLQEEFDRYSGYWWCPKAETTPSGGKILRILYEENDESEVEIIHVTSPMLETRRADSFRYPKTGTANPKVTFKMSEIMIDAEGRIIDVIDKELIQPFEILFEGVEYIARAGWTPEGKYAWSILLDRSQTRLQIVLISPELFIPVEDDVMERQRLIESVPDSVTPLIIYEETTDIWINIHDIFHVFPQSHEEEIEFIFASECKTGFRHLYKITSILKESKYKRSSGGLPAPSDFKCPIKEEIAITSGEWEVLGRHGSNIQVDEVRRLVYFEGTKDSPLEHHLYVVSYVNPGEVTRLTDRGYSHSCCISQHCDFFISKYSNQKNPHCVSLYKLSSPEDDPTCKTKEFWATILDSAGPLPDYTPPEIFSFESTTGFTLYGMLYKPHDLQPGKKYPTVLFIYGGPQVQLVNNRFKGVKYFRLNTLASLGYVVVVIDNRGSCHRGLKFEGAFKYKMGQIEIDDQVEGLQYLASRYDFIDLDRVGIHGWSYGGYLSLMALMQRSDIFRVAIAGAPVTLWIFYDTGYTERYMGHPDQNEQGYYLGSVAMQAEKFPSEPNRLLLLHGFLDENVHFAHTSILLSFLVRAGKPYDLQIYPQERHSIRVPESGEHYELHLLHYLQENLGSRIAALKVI
Chain of Ubiquitin carboxyl-terminal hydrolase 7 (Q93009 whole entry): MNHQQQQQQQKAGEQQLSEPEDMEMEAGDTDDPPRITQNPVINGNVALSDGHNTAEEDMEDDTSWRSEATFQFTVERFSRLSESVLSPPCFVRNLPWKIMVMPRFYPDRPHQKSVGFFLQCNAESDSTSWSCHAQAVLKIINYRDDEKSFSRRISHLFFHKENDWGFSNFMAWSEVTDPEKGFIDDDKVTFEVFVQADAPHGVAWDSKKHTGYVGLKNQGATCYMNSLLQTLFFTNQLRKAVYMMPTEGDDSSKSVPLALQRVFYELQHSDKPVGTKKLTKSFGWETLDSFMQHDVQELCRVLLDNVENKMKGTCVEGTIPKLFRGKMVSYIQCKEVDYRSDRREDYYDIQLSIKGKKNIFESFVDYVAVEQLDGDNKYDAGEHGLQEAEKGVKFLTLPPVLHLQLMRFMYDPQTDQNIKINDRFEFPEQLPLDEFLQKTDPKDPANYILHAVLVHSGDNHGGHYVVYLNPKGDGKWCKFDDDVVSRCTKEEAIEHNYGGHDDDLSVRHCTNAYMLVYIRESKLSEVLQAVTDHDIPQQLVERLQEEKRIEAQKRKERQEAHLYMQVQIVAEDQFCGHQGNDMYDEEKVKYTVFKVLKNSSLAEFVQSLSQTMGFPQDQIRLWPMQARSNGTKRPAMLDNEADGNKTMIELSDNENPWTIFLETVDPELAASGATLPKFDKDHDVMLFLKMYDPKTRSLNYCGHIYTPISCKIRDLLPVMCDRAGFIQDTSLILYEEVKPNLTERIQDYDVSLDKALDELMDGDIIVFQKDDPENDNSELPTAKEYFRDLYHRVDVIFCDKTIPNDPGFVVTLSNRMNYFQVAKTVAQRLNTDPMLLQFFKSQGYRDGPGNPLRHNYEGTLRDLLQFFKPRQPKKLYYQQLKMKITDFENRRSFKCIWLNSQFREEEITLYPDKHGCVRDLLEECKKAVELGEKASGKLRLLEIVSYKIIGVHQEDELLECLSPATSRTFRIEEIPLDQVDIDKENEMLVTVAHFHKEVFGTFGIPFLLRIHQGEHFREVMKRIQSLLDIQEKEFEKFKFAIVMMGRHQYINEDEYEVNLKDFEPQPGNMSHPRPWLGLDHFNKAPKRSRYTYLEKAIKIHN
Chain of FAP (Q12884 whole entry): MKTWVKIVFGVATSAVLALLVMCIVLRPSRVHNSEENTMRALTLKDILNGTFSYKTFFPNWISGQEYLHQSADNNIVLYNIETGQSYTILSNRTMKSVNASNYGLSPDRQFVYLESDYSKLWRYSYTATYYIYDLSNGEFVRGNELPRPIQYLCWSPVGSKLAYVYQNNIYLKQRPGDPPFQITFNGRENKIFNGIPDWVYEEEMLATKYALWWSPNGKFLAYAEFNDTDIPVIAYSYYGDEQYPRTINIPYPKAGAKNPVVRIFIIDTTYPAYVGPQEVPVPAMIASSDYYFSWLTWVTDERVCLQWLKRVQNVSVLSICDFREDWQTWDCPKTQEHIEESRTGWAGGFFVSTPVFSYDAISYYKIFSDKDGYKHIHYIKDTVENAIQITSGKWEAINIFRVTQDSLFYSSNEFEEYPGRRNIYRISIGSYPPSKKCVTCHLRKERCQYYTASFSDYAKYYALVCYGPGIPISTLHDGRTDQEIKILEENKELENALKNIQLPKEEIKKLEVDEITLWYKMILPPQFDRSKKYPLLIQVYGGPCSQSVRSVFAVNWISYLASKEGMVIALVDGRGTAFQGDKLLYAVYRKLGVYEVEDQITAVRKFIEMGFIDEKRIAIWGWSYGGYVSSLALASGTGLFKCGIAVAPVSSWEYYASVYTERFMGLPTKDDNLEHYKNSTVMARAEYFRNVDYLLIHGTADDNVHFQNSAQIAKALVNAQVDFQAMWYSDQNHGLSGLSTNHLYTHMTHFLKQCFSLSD
Chain of Ubiquitin carboxyl-terminal hydrolase 10 (Q14694 whole entry): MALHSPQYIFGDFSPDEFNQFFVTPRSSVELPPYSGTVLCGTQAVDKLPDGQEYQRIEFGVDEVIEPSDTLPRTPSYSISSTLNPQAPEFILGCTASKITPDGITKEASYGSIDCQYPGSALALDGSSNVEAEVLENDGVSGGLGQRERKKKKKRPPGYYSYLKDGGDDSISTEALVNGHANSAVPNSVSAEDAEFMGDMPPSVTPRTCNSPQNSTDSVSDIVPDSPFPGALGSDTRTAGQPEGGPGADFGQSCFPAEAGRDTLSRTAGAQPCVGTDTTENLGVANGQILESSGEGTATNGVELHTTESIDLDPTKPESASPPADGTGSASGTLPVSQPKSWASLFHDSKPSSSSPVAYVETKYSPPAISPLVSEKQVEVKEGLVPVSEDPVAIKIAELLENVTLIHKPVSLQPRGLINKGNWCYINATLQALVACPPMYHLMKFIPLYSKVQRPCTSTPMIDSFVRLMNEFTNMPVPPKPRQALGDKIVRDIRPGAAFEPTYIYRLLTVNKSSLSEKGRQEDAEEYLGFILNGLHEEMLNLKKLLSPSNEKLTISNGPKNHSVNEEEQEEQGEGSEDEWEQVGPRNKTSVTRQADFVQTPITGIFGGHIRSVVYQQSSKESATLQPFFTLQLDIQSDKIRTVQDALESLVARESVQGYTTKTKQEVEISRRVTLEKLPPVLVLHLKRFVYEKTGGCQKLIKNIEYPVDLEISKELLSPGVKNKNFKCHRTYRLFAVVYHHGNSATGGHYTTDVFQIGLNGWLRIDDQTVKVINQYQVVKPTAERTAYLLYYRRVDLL

Molecule: CC(C)(C)OC(=O)N[C@H]1CCCCC/C=C\[C@@H]2C[C@@]2(C(=O)NS(=O)(=O)C2CC2)NC(=O)[C@@H]2C[C@@H](OC(=O)N3Cc4cccc(F)c4C3)CN2C1=O [Denoprevir, reference compound]
Percentage inhibition (%), Reference [1]: 94% | Percentage inhibition (%), Reference [2]: 100% | Percentage inhibition (%), Reference [3]: 98%

Molecule: N#Cc1ccc(NCCNCC(=O)N2N=CCC2C#N)nc1 (stereo not shown) [KR62436]
Percentage inhibition (%), Reference (DPP7): 83% | Percentage inhibition (%), Reference (DPP8): 96%

Molecule: N#C[C@@H]1CC(F)(F)CN1C(=O)CNC(=O)c1ccnc2ccccc12 [SP-13786]
Percentage inhibition (%), Reference (FAP): 100%

Percentage inhibition (%), Reference (Deubiquitinase OTUD6B): 97% | Percentage inhibition (%), Reference [4]: 92% | Percentage inhibition (%), Reference [5]: 95% | Percentage inhibition (%), Reference [6]: 91% | Percentage inhibition (%), Reference [7]: 84% | Percentage inhibition (%), Reference [8]: 95% | Percentage inhibition (%), Reference [9]: 73% | Percentage inhibition (%), Reference [10]: 82% | Percentage inhibition (%), Reference [11]: 96%
Molecule: Ub-Aldehyde
Percentage inhibition (%), Reference (Ataxin3): 77%
